The source made the active and inactive calls. The calls are words filed in the database; no cut-off is given here.
Experiments:
Mus musculus [1] = experiment: Anti-inflammatory activity against DSS-induced acute ulcerative colitis in C57BL/6 mouse model assessed as decrease in colon length shortening at 100 mg/kg, po QD for 6 days (Rvb= 5.5cm); format: functional; conditions: time 6 day
Mus musculus [2] = experiment: Anti-inflammatory activity against DSS-induced acute ulcerative colitis in C57BL/6 mouse model assessed as decrease in IL-17 production in colon at 100 mg/kg, po QD for 6 days by ELISA; format: functional, organism-based; conditions: time 6.0 day
[3] = Oral bioavailability in Han Wistar rat at 5 mg/kg and measured upto 24 hrs by LC-MS analysis; format: ADME, organism-based; conditions: in vivo
Mus musculus [4] = experiment: Anti-inflammatory activity against DSS-induced acute ulcerative colitis in C57BL/6 mouse model assessed as decrease in IL-6 production in colon at 100 mg/kg, po QD for 6 days by ELISA; format: functional, organism-based; conditions: time 6.0 day
Mus musculus [5] = experiment: Anti-inflammatory activity against DSS-induced acute ulcerative colitis in C57BL/6 mouse model assessed as decrease in IL-1beta mRNA expression level in colon at 100 mg/kg, po QD for 6 days by RT-PCR analysis; format: functional, organism-based; conditions: time 6.0 day
Mus musculus [6] = experiment: Anti-inflammatory activity against DSS-induced acute ulcerative colitis in C57BL/6 mouse model assessed as decrease in IL-1beta production in colon at 100 mg/kg, po QD for 6 days by ELISA; format: functional, organism-based; conditions: time 6.0 day
[7] = Terminal half life in Han Wistar rat at 5 mg/kg,po and measured upto 24 hrs by LC-MS analysis; format: ADME, organism-based; conditions: in vivo, read-out: beta t1/2 (converted)
Mus musculus [8] = experiment: Anti-inflammatory activity against DSS-induced acute ulcerative colitis in C57BL/6 mouse model assessed as decrease in IL-17 mRNA expression level in colon at 100 mg/kg, po QD for 6 days by RT-PCR analysis; format: functional, organism-based; conditions: time 6.0 day
[9] = Apparent volume of distribution during terminal phase in Sprague-Dawley rat at 15 mg/kg, po and measured upto 48 hrs by LC-MS/MS analysis; format: ADME, organism-based; conditions: in vivo, read-out: Vz/F
Mus musculus [10] = experiment: Anti-inflammatory activity against DSS-induced acute ulcerative colitis in C57BL/6 mouse model assessed as decrease in IL-6 mRNA expression level in colon at 100 mg/kg, po QD for 6 days by RT-PCR analysis; format: functional, organism-based; conditions: time 6.0 day
[11] = target: Dihydroorotate dehydrogenase (quinone), mitochondrial (Homo sapiens) (UniProt Q02127); conditions: dose 10.0 µM
Description: Binding affinity to human DHODH assessed as change in melting temperature at 10 uM by thermal shift based DSF assay

Mus musculus [12] = experiment: Anti-inflammatory activity against DSS-induced acute ulcerative colitis in C57BL/6 mouse model assessed as decrease in colon tissue damage score at 100 mg/kg, po QD for 6 days relative to DSS group; format: functional; parameters: scale not given: the % may be the effect or the level left; conditions: time 6 day
[13] = Apparent oral clearance in Han Wistar rat at 5 mg/kg,po and measured upto 24 hrs by LC-MS analysis; format: ADME, organism-based; conditions: in vivo
[14] = Acute toxicity in BALB/c mouse assessed as changes in RBC level in blood at 1000 mg/kg,po and measured after 14 days by hematology test; format: organism-based, Erythrocyte; conditions: in vivo, 336 h, time 14 day
[15] = Metabolic stability in mouse liver microsomes assessed as intrinsic clearance at 3 uM incubated upto 90 mins in presence of NADPH by LC-MS/MS analysis; format: ADME, Microsome; conditions: read-out: CLH
[16] = Acute toxicity in BALB/c mouse assessed as changes in CREA level in serum at 1000 mg/kg,po and measured after 14 days by Biochemistry analysis; format: organism-based; conditions: in vivo, 336 h, time 14 day
[17] = Acute toxicity in BALB/c mouse assessed as changes in UA level in serum at 1000 mg/kg,po and measured after 14 days by Biochemistry analysis; format: organism-based; conditions: in vivo, 336 h, time 14 day
[18] = 1-octanol/water partition coefficient, logP of the compound at 2 mg by UPLC analysis; format: physicochemical
[19] = Metabolic stability in human liver microsomes assessed as intrinsic clearance at 3 uM incubated upto 90 mins in presence of NADPH by LC-MS/MS analysis; format: ADME, Microsome; conditions: read-out: CLH
[20] = Acute toxicity in BALB/c mouse assessed as changes in CK level in serum at 1000 mg/kg,po and measured after 14 days by Biochemistry analysis; format: organism-based; conditions: in vivo, 336 h, time 14 day
[21] = Acute toxicity in BALB/c mouse assessed as changes in neutrophil level in blood at 1000 mg/kg,po and measured after 14 days by hematology test; format: organism-based; conditions: in vivo, 336 h, time 14 day
[22] = Acute toxicity in BALB/c mouse assessed as changes in TP level in serum at 1000 mg/kg,po and measured after 14 days by Biochemistry analysis; format: organism-based; conditions: in vivo, 336 h, time 14 day
[23] = Acute toxicity in BALB/c mouse assessed as tissue damage in liver at 1000 mg/kg,po and measured after 14 days by hematoxylin and eosin staining based microscopy; format: organism-based; conditions: in vivo, 336 h, time 14 day
[24] = Acute toxicity in po dosed BALB/c mouse assessed as maximum tolerate dose; format: organism-based; conditions: in vivo
[25] = Acute toxicity in BALB/c mouse assessed as changes in ALP level in serum at 1000 mg/kg,po and measured after 14 days by Biochemistry analysis; format: organism-based; conditions: in vivo, 336 h, time 14 day
[26] = Acute toxicity in BALB/c mouse assessed as death at 1000 mg/kg,po and measured for 14 days; format: organism-based; conditions: in vivo, 336 h, time 14 day
[27] = Acute toxicity in BALB/c mouse assessed as changes in ALB level in serum at 1000 mg/kg,po and measured after 14 days by Biochemistry analysis; format: organism-based; conditions: in vivo, 336 h, time 14 day
[28] = Acute toxicity in BALB/c mouse assessed as body weight loss at 1000 mg/kg,po and measured for 14 days; format: organism-based; conditions: in vivo, 336 h, time 14 day
[29] = Metabolic stability in rat liver microsomes assessed as half life at 3 uM incubated upto 90 mins in presence of NADPH by LC-MS/MS analysis; format: ADME, Microsome
Mus musculus [30] = experiment: Anti-inflammatory activity against DSS-induced acute ulcerative colitis in C57BL/6 mouse model assessed as decrease in body weight loss at 100 mg/kg, po QD for 6 days (Rvb= 25.6%); format: functional; parameters: scale not given: the % may be the effect or the level left; conditions: time 6 day
[31] = Metabolic stability in mouse liver microsomes assessed as half life at 3 uM incubated upto 90 mins in presence of NADPH by LC-MS/MS analysis; format: ADME, Microsome
[32] = Metabolic stability in human liver microsomes assessed as half life at 3 uM incubated upto 90 mins in presence of NADPH by LC-MS/MS analysis; format: ADME, Microsome
[33] = Acute toxicity in BALB/c mouse assessed as tissue damage in kidney at 1000 mg/kg,po and measured after 14 days by hematoxylin and eosin staining based microscopy; format: organism-based; conditions: in vivo, 336 h, time 14 day
[34] = Acute toxicity in BALB/c mouse assessed as changes in ALT level in serum at 1000 mg/kg,po and measured after 14 days by Biochemistry analysis; format: organism-based; conditions: in vivo, 336 h, time 14 day
[35] = Acute toxicity in BALB/c mouse assessed as changes in hematocrit level in blood at 1000 mg/kg,po and measured after 14 days by hematology test; format: organism-based; conditions: in vivo, 336 h, time 14 day
[36] = Acute toxicity in BALB/c mouse assessed as changes in WBC level in blood at 1000 mg/kg,po and measured after 14 days by hematology test; format: organism-based; conditions: in vivo, 336 h, time 14 day
[37] = Acute toxicity in BALB/c mouse assessed as tissue damage in heart at 1000 mg/kg,po and measured after 14 days by hematoxylin and eosin staining based microscopy; format: organism-based; conditions: in vivo, 336 h, time 14 day
Mus musculus [38] = experiment: Anti-inflammatory activity against DSS-induced acute ulcerative colitis in C57BL/6 mouse model assessed as decrease in DAI score at 100 mg/kg, po QD for 6 days; format: functional, organism-based; conditions: time 6.0 day
[39] = Acute toxicity in BALB/c mouse assessed as changes in LDH level in serum at 1000 mg/kg,po and measured after 14 days by Biochemistry analysis; format: organism-based; conditions: in vivo, 336 h, time 14 day
[40] = Acute toxicity in BALB/c mouse assessed as changes in hemoglobin level in blood at 1000 mg/kg,po and measured after 14 days by hematology test; format: organism-based; conditions: in vivo, 336 h, time 14 day
[41] = Metabolic stability in rat liver microsomes assessed as intrinsic clearance at 3 uM incubated upto 90 mins in presence of NADPH by LC-MS/MS analysis; format: ADME, Microsome; conditions: read-out: CLH
[42] = Acute toxicity in BALB/c mouse assessed as changes in urea level in serum at 1000 mg/kg,po and measured after 14 days by Biochemistry analysis; format: organism-based; conditions: in vivo, 336 h, time 14 day
[43] = Acute toxicity in BALB/c mouse assessed as tissue damage in spleen at 1000 mg/kg,po and measured after 14 days by hematoxylin and eosin staining based microscopy; format: organism-based; conditions: in vivo, 336 h, time 14 day
[44] = Acute toxicity in BALB/c mouse assessed as changes in lymph level in blood at 1000 mg/kg,po and measured after 14 days by hematology test; format: organism-based; conditions: in vivo, 336 h, time 14 day
[45] = Acute toxicity in BALB/c mouse assessed as tissue damage in lung at 1000 mg/kg,po and measured after 14 days by hematoxylin and eosin staining based microscopy; format: organism-based; conditions: in vivo, 336 h, time 14 day
[46] = Acute toxicity in BALB/c mouse assessed as changes in general health status at 1000 mg/kg,po and measured for 14 days; format: organism-based; conditions: in vivo, 336 h, time 14 day
[47] = Acute toxicity in BALB/c mouse assessed as changes in AST level in serum at 1000 mg/kg,po and measured after 14 days by Biochemistry analysis; format: organism-based; conditions: in vivo, 336 h, time 14 day
[48] = Acute toxicity in BALB/c mouse assessed as changes in platelet count in blood at 1000 mg/kg,po and measured after 14 days by hematology test; format: organism-based; conditions: in vivo, 336 h, time 14 day

Chain of Dihydroorotate dehydrogenase (quinone), mitochondrial (Homo sapiens) (Q02127 whole entry): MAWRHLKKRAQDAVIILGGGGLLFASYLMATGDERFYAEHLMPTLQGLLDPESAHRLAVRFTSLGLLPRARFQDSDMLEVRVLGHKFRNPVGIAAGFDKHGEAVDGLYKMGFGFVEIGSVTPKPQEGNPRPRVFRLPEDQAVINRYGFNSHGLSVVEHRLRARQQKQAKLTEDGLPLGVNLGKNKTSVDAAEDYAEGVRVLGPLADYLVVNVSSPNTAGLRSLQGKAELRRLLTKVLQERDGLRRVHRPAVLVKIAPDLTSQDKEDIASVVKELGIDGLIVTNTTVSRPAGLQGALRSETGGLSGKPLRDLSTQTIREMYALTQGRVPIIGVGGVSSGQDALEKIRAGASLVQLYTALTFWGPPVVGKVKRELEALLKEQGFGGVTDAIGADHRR

COc1cccc(-c2ccc(NC(=O)C3=C(C(=O)O)CCC3)c(F)c2)c1 [VIDOFLUDIMUS]
Activity (Mus musculus [1]): 6.4 cm | Activity (Mus musculus [2]): Active | bioavailability [3]: 73.8% | Activity (Mus musculus [4]): Active | Activity (Mus musculus [5]): Active | Activity (Mus musculus [6]): Active | half-life [7]: 546 min | Activity (Mus musculus [8]): Active | Vd/F [9]: 0.02 L/kg | Activity (Mus musculus [10]): Active | ΔTm [11]: 9.8 °C | Activity (Mus musculus [12]): 22.73% | CL/F [13]: 220 mL/min/kg

Fc1cccc(Cl)c1Cn1cc(-c2ncc(C3CC3)cn2)c2cccnc21
Activity [14]: Non-Toxic | CLint scaled at 3 µM [15]: 693 mL/min/kg | Activity (Mus musculus [1]): 6.1 cm | Activity [16]: Non-Toxic | Activity (Mus musculus [2]): Active | Activity [17]: Non-Toxic | logP [18]: 5.3 | CLint scaled at 3 µM [19]: 190 mL/min/kg | Activity [20]: Non-Toxic | Activity [21]: Non-Toxic | Activity (Mus musculus [4]): Active | Activity (Mus musculus [5]): Active | Activity [22]: Non-Toxic | Activity [23]: Non-Toxic | MTD [24]: 1000 mg/kg | Activity [25]: Non-Toxic | Activity (Mus musculus [6]): Active | Activity [26]: Non-Toxic | Activity [27]: Non-Toxic | Activity [28]: Non-Toxic | half-life at 3 µM [29]: 16.5 min | Activity (Mus musculus [8]): Active | Activity (Mus musculus [30]): 17.6% | half-life at 3 µM [31]: 7.9 min | half-life at 3 µM [32]: 9.2 min | Activity [33]: Non-Toxic | Activity (Mus musculus [10]): Active | Activity [34]: Non-Toxic | Activity [35]: Non-Toxic | Activity [36]: Non-Toxic | Activity (Mus musculus [12]): 27.27% | Activity [37]: Non-Toxic | Activity (Mus musculus [38]): Active | Activity [39]: Non-Toxic | Activity [40]: Non-Toxic | CLint scaled at 3 µM [41]: 150 mL/min/kg | Activity [42]: Non-Toxic | Activity [43]: Non-Toxic | Activity [44]: Non-Toxic | Activity [45]: Non-Toxic | Activity [46]: Non-Toxic | Activity [47]: Non-Toxic | Activity [48]: Non-Toxic

— ChEMBL document CHEMBL5390254, “Discovery and Optimization of Novel hDHODH Inhibitors for the Treatment of Inflammatory Bowel Disease” (J Med Chem, 2023)
